Reference: US20150272939A1, “Identification of Small Molecule Inhibitors of Jumonji AT-Rich Interactive Domain 1A (JARID1A) and 1B (JARID1B) Histone Demethylase” (Yale University, priority 2012, published 2015)
pIC50: −log10 of the molar value. Where “and” joins values, the source holds several entries; their conditions need not be identical. Equal entries are not always repeated. Entries after “also recorded” stand apart in the source; their conditions may differ.

Legend:
YURIF melanoma cells = assay: WST-1 cell proliferation assay; assay type: cell-based, human; details: 0, 10 and 30 μM
Method: (§1) The colorimetric assay (WST-1 reagent) from Roche (11644807001) was performed in 96 well white clear bottom plates (Costar, 3610). 1,000 cells were seeded per well (in quadruplicate) overnight, and PBIT was added to the cells to the indicated concentration for 72 hrs. 0.01% DMSO was included as the control. The WST-1 reagent was added (5 μl per well) for 4 hrs, and OD 440 nm absorbance (which reflects the number of viable cells) was measured with the BioTek Synergy Mx Platereader.
(§2) A panel of mouse and human melanoma cells was treated with 0, 10 and 30 μM PBIT and their proliferation rates were assessed using WST-1 assays.

YULAC melanoma cells = assay: WST-1 cell proliferation assay; assay type: cell-based, human; details: 0, 10 and 30 μM
Method: as §1, §2

YUAME melanoma cells = assay: WST-1 cell proliferation assay; assay type: cell-based, human; details: 0, 10 and 30 μM
Method: as §1, §2

JARID1A = target: T1, JARID1A (Homo sapiens, UniProt P29375); assay: FLAG-JARID1A histone demethylase assay with AlphaScreen detection (HTS and dose response); assay type: biochemical
T1 construct: the high-throughput screen of the invention utilizes full length JARID1A or JARID1B; FLAG (N); made in house; host or cells: Sf21 insect cells (baculovirus)
Method: (§3) Histone demethylase assays were performed in 384 well white plates (Corning 3574). Demethylase buffer conditions for FLAG-JARID1B were as follows: 10 μM α-KG, 100 μM ascorbate, 50 μM (NH4)2Fe(SO4)2, 50 mM Hepes (pH 7.5), 0.01% (v/v) Tween 20, and 0.1% (w/v) bovine serum albumin. The demethylase reactions included 64 nM bio-H3K4me3 peptide alone or in the presence of 4 nM FLAG-JARID1B enzyme in a 10 μl reaction at 25° C. for 30 minutes. As a positive control, 64 nM bio-H3K4me2 peptide was assayed in the absence of enzyme. Assay conditions for FLAG-JARID1C is the same as for FLAG-JARID1B except that 20 nM enzyme was used. For FLAG-JARID1A, the demethylase buffer was similar to FLAG-JARID1B, except that 125 μM α-KG and 13 nM FLAG-JARID1A enzyme were used. The His-FLAG-UTX and FLAG-JMJD3 demethylase assays also employed the same buffer conditions as for FLAG-JARID1B, with 64 nM bio-H3K27me3 peptide assayed with or without 25 nM His-FLAG-UTX enzyme or 50 nM FLAG-JMJD3 (BPS Bioscience, 50115), and 64 nM bio-H3K27me2 peptide as a positive control. JARID1A, JARID1C, UTX, and JMJD3 histone demethylase assays proceeded at 37° C. for 1 hour.
(§4) The AlphaScreen General IgG (Protein A) detection kit was obtained from PerkinElmer. Demethylated H3K4 products were detected using AlphaScreen antibody/bead mix containing 7.5 mM ethylenediaminetetraacetic acid (EDTA) and 0.15 μg/ml anti-H3K4me1 antibody in a final volume of 20 μl. For detection of demethylated H3K27 products, the AlphaScreen antibody/bead mix containing 7.5 mM EDTA and 0.15 μg/ml anti-H3K27me2 antibody in a final volume of 20 μl. The luminescence signal was measured using the Envision (PerkinElmer) or Pherastar (BMG Labtech) Platereaders.
FLAG-JARID1A was screened against 9,600 compounds. These compound libraries were from the Yale Center for Molecular Discovery. The libraries screened include the MicroSource Gen-Plus, MicroSource Pure Natural Products, NIH Clinical Collection, Enzo Epigenetics, and ChemBridge MW-Set libraries. Compounds dissolved in dimethyl sulfoxide (DMSO) were pintooled into a 384 well plate containing bio-H3K4me3 peptide in demethylase buffer to a final concentration of 20 μM. The reactions were initiated by the addition of 13 nM FLAG-JARID1A, and detected as described above. To eliminate the false positive hits, a counterscreen was performed against bio-H3K4me2 in the absence of enzyme.

[1] = tested on: 1445 mouse melanoma cells; assay: WST-1 cell proliferation assay; assay type: cell-based; details: 0, 10 and 30 μM
Method: as §1, §2

[2] = tested on: HeLa cells overexpressing full-length JARID1B; assay: H3K4me3 immunofluorescence in cells overexpressing 3xHA-JARID1B; assay type: cell-based; details: 10 μM or 30 μM, 24 hours
Method: pcDNA3.1(−)-3×HA-JARID1B construct was generated by inserting 3×HA-JARID1B between BamHI and XbaI of pcDNA3.1(−) vector. MCF7 cells were plated on 12 mm circle coverslips in 24-well plates and transfected with pcDNA3.1(−)-3×HA-JARID1B in the presence of 0, 10 or 30 μM PBIT. After incubation for 24 hours, the cells were fixed, permeabilized, and stained with antibodies against HA and H3K4me3 for 2 hours. The coverslips were then incubated with anti-mouse Alexa-546 (Invitrogen, A-11003) and goat anti-rabbit Envision (Dako, K4002) for 1 hour. Cy5-Tyramide (Perkin Elmer, NEL775001KT) and 4,6-diamidino-2-phenylindole dihydrochloride (DAPI) (Biotium, 40011) were used to visualize 3×HA-tagged JARID1B and nuclei, respectively. The slides were sealed and analyzed under an Olympus fluorescence microscope.
To determine whether JARID1B could be inhibited by PBIT in cells, HeLa cells overexpressing full-length JARID1B were treated with 10 μM or 30 μM PBIT. As expected, in JARID1B transfected cells, the levels of H3K4me3 decreased dramatically compared with untransfected cells (FIG. 5).

JARID1C = target: T2, JARID1C (Homo sapiens, UniProt P41229); assay: FLAG-JARID1C histone demethylase assay with AlphaScreen detection; assay type: biochemical
T2 construct: FLAG (N); made in house; host or cells: Sf21 insect cells (baculovirus)
Method: as §3, §4

JMJD3 = target: T3, JMJD3 (Homo sapiens, UniProt O15054); assay: FLAG-JMJD3 H3K27me3 demethylase assay with AlphaScreen detection; assay type: biochemical; details: compound 10 μM, 64 nM bio-H3K27me3 peptide
T3 construct: FLAG (N); purchased BPS Bioscience 50115
Method: as §3, with “The His-FLAG-UTX and FLAG-JMJD3 demethylase assays also employed the same buffer conditions as for FLAG-JARID1B, with 64 nM bio-H3K27me3 peptide assayed with or without 25 nM His-FLAG-UTX enzyme or 50 nM FLAG-JMJD3 (BPS Bioscience, 50115), and 64 nM bio-H3K27me2 peptide as a positive control. JARID1A, JARID1C, UTX, and JMJD3 histone demethylase assays proceeded at 37° C. for 1 hour.” left out
as §4, with “For detection of demethylated H3K27 products, the AlphaScreen antibody/bead mix containing 7.5 mM EDTA and 0.15 μg/ml anti-H3K27me2 antibody in a final volume of 20 μl.” left out

[3] = compound 10 μM, 64 nM bio-H3K4me3 peptide

T1 sequence (P29375 whole entry): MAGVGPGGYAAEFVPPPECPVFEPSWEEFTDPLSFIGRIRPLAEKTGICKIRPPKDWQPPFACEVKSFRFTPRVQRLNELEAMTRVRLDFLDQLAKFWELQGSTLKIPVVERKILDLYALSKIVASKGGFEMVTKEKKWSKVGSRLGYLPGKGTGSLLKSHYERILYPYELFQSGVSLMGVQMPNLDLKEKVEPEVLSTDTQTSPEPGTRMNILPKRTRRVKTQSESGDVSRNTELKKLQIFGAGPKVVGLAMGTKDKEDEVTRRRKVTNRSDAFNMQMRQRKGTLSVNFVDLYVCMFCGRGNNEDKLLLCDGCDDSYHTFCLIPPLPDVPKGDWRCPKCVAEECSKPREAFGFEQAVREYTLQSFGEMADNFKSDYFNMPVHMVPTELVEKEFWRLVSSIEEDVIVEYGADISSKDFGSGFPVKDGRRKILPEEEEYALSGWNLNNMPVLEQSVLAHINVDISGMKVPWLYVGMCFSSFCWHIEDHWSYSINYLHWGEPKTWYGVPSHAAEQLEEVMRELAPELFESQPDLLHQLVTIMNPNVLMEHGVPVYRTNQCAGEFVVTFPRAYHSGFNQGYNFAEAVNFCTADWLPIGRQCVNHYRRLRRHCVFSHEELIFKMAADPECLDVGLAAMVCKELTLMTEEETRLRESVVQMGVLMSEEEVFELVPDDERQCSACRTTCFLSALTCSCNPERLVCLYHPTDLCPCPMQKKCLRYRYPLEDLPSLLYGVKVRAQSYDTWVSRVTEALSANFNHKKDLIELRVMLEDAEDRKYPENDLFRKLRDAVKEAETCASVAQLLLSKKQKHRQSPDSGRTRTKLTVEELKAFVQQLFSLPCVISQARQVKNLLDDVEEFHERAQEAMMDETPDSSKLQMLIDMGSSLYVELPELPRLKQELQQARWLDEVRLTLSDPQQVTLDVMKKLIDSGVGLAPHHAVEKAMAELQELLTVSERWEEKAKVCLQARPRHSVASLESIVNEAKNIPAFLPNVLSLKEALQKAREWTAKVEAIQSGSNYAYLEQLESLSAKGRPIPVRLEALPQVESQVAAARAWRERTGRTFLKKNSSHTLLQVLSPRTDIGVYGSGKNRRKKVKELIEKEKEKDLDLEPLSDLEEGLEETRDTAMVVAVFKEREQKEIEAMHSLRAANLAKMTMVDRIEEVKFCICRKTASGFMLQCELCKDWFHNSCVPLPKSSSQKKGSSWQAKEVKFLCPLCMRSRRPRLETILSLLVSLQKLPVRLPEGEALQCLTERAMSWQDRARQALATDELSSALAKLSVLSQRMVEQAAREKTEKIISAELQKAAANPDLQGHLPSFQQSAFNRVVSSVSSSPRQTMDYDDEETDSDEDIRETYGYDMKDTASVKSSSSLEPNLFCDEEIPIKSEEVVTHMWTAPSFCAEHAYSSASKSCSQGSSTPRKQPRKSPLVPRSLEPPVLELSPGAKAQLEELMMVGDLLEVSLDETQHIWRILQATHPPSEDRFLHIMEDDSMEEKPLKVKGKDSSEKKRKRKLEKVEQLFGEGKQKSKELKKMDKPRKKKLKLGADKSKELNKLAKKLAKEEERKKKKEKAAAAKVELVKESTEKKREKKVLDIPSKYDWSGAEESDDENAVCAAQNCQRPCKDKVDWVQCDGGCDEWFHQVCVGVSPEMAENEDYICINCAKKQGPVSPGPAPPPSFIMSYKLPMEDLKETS
T2 sequence (P41229 whole entry): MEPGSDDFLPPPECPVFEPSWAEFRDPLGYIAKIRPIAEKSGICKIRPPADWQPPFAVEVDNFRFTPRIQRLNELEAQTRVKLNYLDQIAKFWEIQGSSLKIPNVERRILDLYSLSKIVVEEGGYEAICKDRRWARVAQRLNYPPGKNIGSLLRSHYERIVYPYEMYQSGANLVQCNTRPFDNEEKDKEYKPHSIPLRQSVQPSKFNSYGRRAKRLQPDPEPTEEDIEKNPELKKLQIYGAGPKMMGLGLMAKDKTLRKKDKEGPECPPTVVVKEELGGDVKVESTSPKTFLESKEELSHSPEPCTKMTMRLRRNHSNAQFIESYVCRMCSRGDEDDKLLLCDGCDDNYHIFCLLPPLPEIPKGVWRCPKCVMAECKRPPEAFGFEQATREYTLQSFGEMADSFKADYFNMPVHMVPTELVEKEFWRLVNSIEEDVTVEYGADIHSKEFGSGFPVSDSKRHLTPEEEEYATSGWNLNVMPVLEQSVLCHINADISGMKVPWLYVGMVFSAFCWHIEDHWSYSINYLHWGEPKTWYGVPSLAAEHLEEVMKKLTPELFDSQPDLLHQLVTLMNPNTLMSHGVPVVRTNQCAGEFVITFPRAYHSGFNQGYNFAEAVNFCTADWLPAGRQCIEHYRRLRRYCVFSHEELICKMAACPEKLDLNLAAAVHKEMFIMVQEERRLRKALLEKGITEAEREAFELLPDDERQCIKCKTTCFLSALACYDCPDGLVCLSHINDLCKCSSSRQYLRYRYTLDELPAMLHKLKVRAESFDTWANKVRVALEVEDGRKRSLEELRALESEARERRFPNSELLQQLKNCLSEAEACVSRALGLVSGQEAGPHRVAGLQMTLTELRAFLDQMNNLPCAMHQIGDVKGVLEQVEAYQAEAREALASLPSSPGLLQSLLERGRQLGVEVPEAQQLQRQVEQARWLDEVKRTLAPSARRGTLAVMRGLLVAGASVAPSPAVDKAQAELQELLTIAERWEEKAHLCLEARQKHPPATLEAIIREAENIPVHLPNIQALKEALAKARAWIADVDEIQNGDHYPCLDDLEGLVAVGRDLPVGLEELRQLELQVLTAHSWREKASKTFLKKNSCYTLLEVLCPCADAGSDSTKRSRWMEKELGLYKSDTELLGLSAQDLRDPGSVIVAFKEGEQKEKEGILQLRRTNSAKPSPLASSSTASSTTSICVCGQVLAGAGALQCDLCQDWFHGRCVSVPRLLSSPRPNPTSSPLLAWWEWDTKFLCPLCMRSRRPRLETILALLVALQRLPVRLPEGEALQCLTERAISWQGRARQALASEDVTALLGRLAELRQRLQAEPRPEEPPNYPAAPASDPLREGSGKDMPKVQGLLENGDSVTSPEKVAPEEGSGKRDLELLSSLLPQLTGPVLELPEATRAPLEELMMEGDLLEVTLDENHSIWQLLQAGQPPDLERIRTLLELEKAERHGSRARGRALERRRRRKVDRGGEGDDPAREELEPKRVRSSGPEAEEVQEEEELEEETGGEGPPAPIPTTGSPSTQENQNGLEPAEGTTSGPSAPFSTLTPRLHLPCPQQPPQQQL
T3 sequence (O15054 1-1682 isoform O15054-1): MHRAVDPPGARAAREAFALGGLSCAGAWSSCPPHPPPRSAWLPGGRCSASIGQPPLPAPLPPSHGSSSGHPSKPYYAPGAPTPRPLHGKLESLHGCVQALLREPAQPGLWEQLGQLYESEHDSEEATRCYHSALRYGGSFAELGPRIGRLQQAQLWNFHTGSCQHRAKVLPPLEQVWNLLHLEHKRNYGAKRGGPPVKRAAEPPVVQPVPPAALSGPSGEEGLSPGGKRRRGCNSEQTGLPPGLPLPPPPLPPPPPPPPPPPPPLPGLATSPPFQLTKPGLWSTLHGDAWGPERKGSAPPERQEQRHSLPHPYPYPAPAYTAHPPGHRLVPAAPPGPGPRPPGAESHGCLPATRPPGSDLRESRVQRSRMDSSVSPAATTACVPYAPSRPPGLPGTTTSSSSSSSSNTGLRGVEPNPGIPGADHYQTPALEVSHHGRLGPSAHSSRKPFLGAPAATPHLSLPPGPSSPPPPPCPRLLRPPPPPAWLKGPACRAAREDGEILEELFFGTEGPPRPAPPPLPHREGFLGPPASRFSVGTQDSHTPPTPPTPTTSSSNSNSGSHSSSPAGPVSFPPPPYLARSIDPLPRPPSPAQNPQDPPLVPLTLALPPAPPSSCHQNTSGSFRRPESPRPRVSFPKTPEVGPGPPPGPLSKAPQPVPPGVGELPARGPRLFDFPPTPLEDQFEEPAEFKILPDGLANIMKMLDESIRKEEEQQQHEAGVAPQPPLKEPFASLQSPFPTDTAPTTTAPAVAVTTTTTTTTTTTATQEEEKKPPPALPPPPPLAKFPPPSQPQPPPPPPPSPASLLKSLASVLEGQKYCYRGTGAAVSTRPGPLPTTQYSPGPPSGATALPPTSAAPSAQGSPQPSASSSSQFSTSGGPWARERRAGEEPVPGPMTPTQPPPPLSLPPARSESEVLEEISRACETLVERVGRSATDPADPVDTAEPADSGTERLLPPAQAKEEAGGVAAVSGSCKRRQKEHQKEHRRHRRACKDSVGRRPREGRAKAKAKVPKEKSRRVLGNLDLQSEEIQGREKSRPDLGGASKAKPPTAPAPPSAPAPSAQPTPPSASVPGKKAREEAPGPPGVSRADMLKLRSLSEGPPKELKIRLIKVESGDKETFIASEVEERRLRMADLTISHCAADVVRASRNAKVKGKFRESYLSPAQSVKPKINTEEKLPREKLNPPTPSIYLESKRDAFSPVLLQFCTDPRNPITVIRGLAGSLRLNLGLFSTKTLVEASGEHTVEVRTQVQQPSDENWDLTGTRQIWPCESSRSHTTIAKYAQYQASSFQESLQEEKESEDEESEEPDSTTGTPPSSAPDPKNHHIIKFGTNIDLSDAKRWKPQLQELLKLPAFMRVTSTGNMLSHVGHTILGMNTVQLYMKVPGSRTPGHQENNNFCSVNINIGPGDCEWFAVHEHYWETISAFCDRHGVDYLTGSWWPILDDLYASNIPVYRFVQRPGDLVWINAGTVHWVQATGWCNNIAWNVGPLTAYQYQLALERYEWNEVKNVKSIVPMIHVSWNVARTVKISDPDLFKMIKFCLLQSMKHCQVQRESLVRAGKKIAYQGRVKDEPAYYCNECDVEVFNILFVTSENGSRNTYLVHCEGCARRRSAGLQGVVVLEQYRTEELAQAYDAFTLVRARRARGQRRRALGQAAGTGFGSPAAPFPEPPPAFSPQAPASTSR

`Cc1ccc(-n2sc3ccccc3c2=O)cc1` [PBIT, 2-4(4-methylphenyl)-1,2-benzisothiazol-3(2H)-one] was tested, and the “sensitivity of proliferation to treatment (WST-1)” value (shortened to “sensitivity of proliferation”) (YURIF melanoma cells) was “least sensitive”, the “sensitivity of proliferation” value (YULAC melanoma cells) was “sensitive” and the “sensitivity of proliferation” value (YUAME melanoma cells) was “sensitive”. The JARID1A demethylase activity (JARID1A; [3]) was “inhibited”, the pIC50 (JARID1A; dose response, 50 μM Fe (II), read-out: IC50 against JARID1A) was 5.22 and ~5.22 and the “sensitivity of proliferation” value [1] was “most sensitive”. The “JARID1B overexpression-induced decrease of H3K4me3” value [2] was “prevented; also recorded: decrease was blocked”, the JARID1C demethylase activity (JARID1C; [3]) was “inhibited” and the pIC50 (JARID1C; dose response, read-out: IC50 against JARID1C) was 5.31. The JMJD3 demethylase activity (JMJD3) was “minimal effect; also recorded: did not inhibit”.
